Laboratory results reported in ChEMBL document CHEMBL4840351 (J Med Chem, 2021).
pIC50: −log10 of the molar value.

How the values were obtained:
[1] = Receptor occupancy at BTK in spleen of ICR mouse at 15 mg/kg, po after 24 hrs by ELISA; type: functional
[2] = Drug concentration in ICR mouse plasma at 15 mg/kg, po after 2 hrs; type: ADME, organism-based
[3] = Receptor occupancy at BTK in PBMC of ICR mouse at 15 mg/kg, po after 1 hr by ELISA; type: functional
[4] = Receptor occupancy at BTK in spleen of ICR mouse at 15 mg/kg, po after 1 hr by ELISA; type: functional
[5] = Toxicity in SFP CD-1 mouse assessed as pathological change in visceral organs at 10 to 1280 mg/kg, po administered for 7 days by H and E staining based assay; type: organism-based; settings: in vivo, 168 h, dose 10-1280 mg/kg, time 7 day
[6] = Toxicity in SFP CD-1 mouse assessed as change in behavior at 10 to 1280 mg/kg, po administered for 7 days; type: organism-based; settings: in vivo, 168 h, dose 10-1280 mg/kg, time 7 day
[7] = Cmax in Sprague-Dawley rat at 5 mg/kg, po measured upto 24 hrs by LC/MS/MS analysis; type: ADME, organism-based; design: route oral, dose 5 mg/kg, time <=24; settings: in vivo
[8] = AUC in Sprague-Dawley rat at 5 mg/kg, iv measured upto 24 hrs by LC/MS/MS analysis; type: ADME, organism-based; design: route intravenous, dose 5 mg/kg, time <=24; settings: in vivo
[9] = Half life in Sprague-Dawley rat at 5 mg/kg, iv measured upto 24 hrs by LC/MS/MS analysis; type: ADME, organism-based; settings: in vivo
[10] = target: T1, Tyrosine-protein kinase ITK/TSK (Homo sapiens, UniProt Q08881); assay: Inhibition of full-length N-terminal GST-tagged ITK (2 to 620 residues) (unknown origin) expressed in Sf21 insect cells using NH2-ETVYSEVRK-biotin as substrate preincubated for 1 hr followed by ATP addition and measured after 2 hrs by ELISA
T1 sequence (Q08881 whole entry): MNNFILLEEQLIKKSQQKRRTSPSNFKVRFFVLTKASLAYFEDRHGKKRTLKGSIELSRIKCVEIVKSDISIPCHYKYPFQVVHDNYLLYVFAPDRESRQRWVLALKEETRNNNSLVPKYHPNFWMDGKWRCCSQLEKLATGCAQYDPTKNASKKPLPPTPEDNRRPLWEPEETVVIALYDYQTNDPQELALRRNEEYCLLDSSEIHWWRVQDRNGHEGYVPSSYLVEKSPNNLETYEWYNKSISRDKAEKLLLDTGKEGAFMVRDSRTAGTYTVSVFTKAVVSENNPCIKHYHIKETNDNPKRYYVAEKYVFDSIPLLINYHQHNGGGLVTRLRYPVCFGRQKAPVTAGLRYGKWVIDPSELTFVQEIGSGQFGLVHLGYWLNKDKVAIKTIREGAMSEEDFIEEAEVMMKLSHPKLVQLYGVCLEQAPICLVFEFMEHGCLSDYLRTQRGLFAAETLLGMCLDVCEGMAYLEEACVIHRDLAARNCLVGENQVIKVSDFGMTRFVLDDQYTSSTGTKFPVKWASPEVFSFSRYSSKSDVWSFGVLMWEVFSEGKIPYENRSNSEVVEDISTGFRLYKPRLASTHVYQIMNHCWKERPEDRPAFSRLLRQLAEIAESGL

[11] = target: Tyrosine-protein kinase Blk (Homo sapiens, UniProt P51451); assay: Inhibition of BLK (unknown origin) at 1 uM relative to control
[12] = target: Tyrosine-protein kinase Lyn (Homo sapiens, UniProt P07948); assay: Inhibition of LYN (unknown origin)
[13] = target: Tyrosine-protein kinase Fyn (Homo sapiens, UniProt P06241); assay: Inhibition of FYN (unknown origin)
[14] = target: Tyrosine-protein kinase Lck (Homo sapiens, UniProt P06239); assay: Inhibition of LCK (unknown origin)
Rec1 = assay: Antiproliferative activity against human REC-1 cells assessed as reduction in cell viability incubated for 72 hrs by celltiter-glo assay; settings: Rec1, 72 h
Raji = assay: Antiproliferative activity against human Raji cells assessed as reduction in cell viability incubated for 72 hrs by celltiter-glo assay
NAMALVA = assay: Antiproliferative activity against human NAMALWA cells assessed as reduction in cell viability incubated for 72 hrs by celltiter-glo assay
SU-DHL-2 = assay: Antiproliferative activity against human SUDHL2 cells assessed as reduction in cell viability incubated for 72 hrs by celltiter-glo assay; settings: SU-DHL-2, 72 h
Pfeiffer = assay: Antiproliferative activity against human Pfeiffer cells assessed as reduction in cell viability incubated for 72 hrs by celltiter-glo assay
TMD8 [15] = assay: Induction of cell cycle arrest in human TMD8 cells assessed as accumulation of cells at G1 phase at 3 nM incubated for 48 hrs by PI staining based flow cytometric analysis (reference value: 57.66 %); type: functional
TMD8 [16] = assay: Induction of cell cycle arrest in human TMD8 cells assessed as accumulation of cells at G2 phase at 3 nM incubated for 48 hrs by PI staining based flow cytometric analysis (reference value: 4.92 %); type: functional
TMD8 [17] = assay: Induction of cell cycle arrest in human TMD8 cells assessed as accumulation of cells at G1 phase at 30 nM incubated for 48 hrs by PI staining based flow cytometric analysis (reference value: 57.66 %); type: functional
TMD8 [18] = assay: Induction of cell cycle arrest in human TMD8 cells assessed as accumulation of cells at S phase at 30 nM incubated for 48 hrs by PI staining based flow cytometric analysis (reference value: 37.42 %); type: functional
TMD8 [19] = assay: Induction of cell cycle arrest in human TMD8 cells assessed as accumulation of cells at G2 phase at 30 nM incubated for 48 hrs by PI staining based flow cytometric analysis (reference value: 4.92 %); type: functional
TMD8 [20] = assay: Induction of cell cycle arrest in human TMD8 cells assessed as accumulation of cells at G1 phase at 300 nM incubated for 48 hrs by PI staining based flow cytometric analysis (reference value: 57.66 %); type: functional
TMD8 [21] = assay: Induction of cell cycle arrest in human TMD8 cells assessed as accumulation of cells at S phase at 300 nM incubated for 48 hrs by PI staining based flow cytometric analysis (reference value: 37.42 %); type: functional
TMD8 [22] = assay: Induction of cell cycle arrest in human TMD8 cells assessed as accumulation of cells at G2 phase at 300 nM incubated for 48 hrs by PI staining based flow cytometric analysis (reference value: 4.92 %); type: functional
TMD8 [23] = assay: Induction of apoptosis in human TMD8 cells at 30 nM incubated for 72 hrs by Annexin V-FITC/PI staining based flow cytometric analysis (reference value: 13.4 %); type: functional
TMD8 [24] = assay: Induction of apoptosis in human TMD8 cells at 3000 nM incubated for 72 hrs by Annexin V-FITC/PI staining based flow cytometric analysis (reference value: 13.4 %); type: functional
[25] = target: Tyrosine-protein kinase BTK (Homo sapiens, UniProt Q06187); assay: Inhibition of BTK in human TMD8 cells assessed as reduction in BTK autophosphorylation at Tyr 223 residue after 4 hrs by Western blot analysis; type: cell-based
TMD8 [26] = assay: Antitumor activity against human TMD8 cells xenografted in CB-17 SCID nude mouse assessed as tumor growth inhibition at 7.5 mg/kg, po bid administered for 21 days; type: functional; settings: 504 h, time 21 day, read-out: TGI

Sequence of Tyrosine-protein kinase Lck (P06239 whole entry): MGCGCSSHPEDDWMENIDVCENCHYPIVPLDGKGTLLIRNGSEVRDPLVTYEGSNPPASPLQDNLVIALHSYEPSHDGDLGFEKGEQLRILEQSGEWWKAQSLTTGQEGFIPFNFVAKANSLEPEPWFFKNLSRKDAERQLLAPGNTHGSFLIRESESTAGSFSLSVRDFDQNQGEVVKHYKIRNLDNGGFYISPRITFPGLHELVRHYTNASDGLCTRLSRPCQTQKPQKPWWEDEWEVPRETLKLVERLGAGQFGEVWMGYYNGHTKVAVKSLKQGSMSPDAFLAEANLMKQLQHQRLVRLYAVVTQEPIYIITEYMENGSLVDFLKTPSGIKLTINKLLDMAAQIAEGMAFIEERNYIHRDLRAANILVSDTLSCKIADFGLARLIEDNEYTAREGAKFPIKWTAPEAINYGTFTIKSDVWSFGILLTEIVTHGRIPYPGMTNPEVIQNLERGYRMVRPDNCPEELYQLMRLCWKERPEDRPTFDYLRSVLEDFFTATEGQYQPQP
Sequence of Tyrosine-protein kinase Lyn (P07948 whole entry): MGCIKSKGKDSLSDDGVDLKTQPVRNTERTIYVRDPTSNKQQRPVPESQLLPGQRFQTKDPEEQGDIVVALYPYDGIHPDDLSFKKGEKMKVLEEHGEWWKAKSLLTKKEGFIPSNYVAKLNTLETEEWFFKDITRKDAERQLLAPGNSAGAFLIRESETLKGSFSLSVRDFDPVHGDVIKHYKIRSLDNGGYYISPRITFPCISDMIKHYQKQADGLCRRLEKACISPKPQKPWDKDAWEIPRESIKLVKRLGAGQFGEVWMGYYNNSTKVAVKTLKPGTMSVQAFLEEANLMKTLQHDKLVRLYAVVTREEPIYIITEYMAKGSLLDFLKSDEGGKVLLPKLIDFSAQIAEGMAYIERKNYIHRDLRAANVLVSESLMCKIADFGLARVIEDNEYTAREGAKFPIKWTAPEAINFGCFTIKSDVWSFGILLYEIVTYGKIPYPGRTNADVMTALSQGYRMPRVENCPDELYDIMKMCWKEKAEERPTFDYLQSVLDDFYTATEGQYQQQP
Sequence of Tyrosine-protein kinase BTK (Q06187 whole entry): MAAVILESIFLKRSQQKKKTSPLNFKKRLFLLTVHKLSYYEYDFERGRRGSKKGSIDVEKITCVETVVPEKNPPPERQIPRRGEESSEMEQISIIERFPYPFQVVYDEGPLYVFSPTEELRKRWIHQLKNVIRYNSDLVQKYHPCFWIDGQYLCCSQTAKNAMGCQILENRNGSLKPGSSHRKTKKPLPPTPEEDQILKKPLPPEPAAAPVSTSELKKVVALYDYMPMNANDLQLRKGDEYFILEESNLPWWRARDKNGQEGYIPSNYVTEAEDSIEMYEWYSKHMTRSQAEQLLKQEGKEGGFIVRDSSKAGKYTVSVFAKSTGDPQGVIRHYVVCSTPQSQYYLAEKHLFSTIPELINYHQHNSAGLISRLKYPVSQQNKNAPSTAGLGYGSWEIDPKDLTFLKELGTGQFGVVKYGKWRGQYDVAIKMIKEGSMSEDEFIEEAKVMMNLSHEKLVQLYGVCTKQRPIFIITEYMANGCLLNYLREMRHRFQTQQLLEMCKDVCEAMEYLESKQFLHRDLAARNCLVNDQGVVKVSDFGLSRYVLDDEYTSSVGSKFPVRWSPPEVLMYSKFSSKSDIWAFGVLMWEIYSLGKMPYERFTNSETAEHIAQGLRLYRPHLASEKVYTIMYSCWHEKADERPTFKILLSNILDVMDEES
Sequence of Tyrosine-protein kinase Fyn (P06241 whole entry): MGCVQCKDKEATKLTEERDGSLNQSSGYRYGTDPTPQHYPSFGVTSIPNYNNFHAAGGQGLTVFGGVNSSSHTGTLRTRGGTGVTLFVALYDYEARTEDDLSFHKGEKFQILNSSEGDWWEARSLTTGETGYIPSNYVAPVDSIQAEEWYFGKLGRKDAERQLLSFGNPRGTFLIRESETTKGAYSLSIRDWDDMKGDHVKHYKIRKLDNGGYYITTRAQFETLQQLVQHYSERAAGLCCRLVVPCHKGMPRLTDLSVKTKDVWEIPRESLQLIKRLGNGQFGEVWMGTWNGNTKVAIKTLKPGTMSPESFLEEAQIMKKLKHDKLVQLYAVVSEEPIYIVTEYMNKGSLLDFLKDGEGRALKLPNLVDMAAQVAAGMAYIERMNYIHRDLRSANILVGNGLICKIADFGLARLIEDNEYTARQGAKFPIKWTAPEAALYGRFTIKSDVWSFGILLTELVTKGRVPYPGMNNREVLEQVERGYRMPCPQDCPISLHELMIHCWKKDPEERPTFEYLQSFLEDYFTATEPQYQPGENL
Sequence of Tyrosine-protein kinase Blk (P51451 2-505 limits assumed): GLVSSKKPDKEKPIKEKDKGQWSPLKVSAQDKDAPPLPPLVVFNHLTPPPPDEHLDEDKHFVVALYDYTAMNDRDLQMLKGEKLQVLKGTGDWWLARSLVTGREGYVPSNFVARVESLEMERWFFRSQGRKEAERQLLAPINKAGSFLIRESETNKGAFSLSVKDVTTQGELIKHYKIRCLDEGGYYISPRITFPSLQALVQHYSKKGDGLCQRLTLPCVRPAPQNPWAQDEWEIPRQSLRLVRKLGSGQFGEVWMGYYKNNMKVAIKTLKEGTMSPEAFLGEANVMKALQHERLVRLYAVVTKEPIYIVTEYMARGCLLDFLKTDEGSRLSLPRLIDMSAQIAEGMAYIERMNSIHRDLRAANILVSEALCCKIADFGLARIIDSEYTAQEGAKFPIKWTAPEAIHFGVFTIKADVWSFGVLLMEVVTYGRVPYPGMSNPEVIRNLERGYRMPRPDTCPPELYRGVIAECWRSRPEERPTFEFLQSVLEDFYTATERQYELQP

SMILES: C=CC(=O)N1CCCC[C@H]1c1nc(-c2ccc(C(=O)Nc3cc(C(F)(F)F)ccn3)cc2)c(C(N)=O)n1N
- Occ [1]: 58%
- concentration at 2 h [2]: 640 nM
- Occ [3]: 95%
- Occ [4]: 95%
- Activity [5]: Non-Toxic
- Activity [6]: Non-Toxic
- Cmax [7]: 501 ng/mL
- AUC at 24 h [8]: 6360 ng·h/mL
- half-life [9]: 1.32 h
- pIC50 [10]: 6.07
- inhibition [11]: > 80%
- inhibition (INH) [12]: Not Active
- inhibition (INH) [13]: Not Active
- inhibition (INH) [14]: Not Active
- pIC50 (Rec1): 7.46
- pIC50 (Raji): 5.37
- pIC50 (NAMALVA): 5.39
- pIC50 (SU-DHL-2): 5.26
- pIC50 (Pfeiffer): 5.60
- Activity (TMD8 [15]): 54.21%
- Activity (TMD8 [16]): 7.94%
- Activity (TMD8 [17]): 84.36%
- Activity (TMD8 [18]): 10.95%
- Activity (TMD8 [19]): 4.69%
- Activity (TMD8 [20]): 93.84%
- Activity (TMD8 [21]): 2.37%
- Activity (TMD8 [22]): 3.79%
- Activity (TMD8 [23]): 19.2%
- Activity (TMD8 [24]): 68.4%
- pIC50 [25]: 8.05
- inhibition in vivo at 7.5 mg/kg (TMD8 [26]): 96%
